Here are results for three molecules from patent publication US10206906B2, “Synergistic combination of a phenolic-rich maple syrup extract and an antibiotic” (priority 2015, dated 2019).

Converted amounts (≈) assume the structure as drawn. Like-named read-outs stand apart in the source and are kept apart here.

Assay [1] relates to P. aeruginosa PA14. Nature of the assay: Checkerboard microdilution assay (growth inhibition synergy). It counts as cell-based, Pseudomonas aeruginosa. The following applies: for FIC of ciprofloxacin: ciprofloxacin in combination with the labelled phenolic constituent; for FICI: labelled phenolic constituent + ciprofloxacin, * = synergistic interaction; for FIC of compound: labelled phenolic constituent in combination with ciprofloxacin. The method, then: (§1) The checkerboard microdilution assay is used for evaluation of in vitro antimicrobial synergy between two compounds (i.e., antibiotic/PRMSE, antibiotic/pure phenolic compound, and pure phenolic compounds with each other). Two-fold serial dilutions are prepared in MHB-II for each of the two compounds under study. The serial dilutions are then loaded into 96 well plates to achieve combinations having different concentrations of each of the two compounds. Each well is subsequently inoculated with 10^6 CFU mL^−1 of the desired bacterial strain and incubated at 37° C. for 18 h under static conditions. The Fractional Inhibitory Concentration Index (FICI) for each combination is calculated by using the following formula: FICcomponent 1=MICcomponent 1, in combination/MICcomponent 1,alone FICI=FICcomponent 1+FICcomponent 2
(§2) The FICIs are interpreted as follows: FICI of […] (synergy); 0.5<FICI ≤1 (no interaction/indifference); FICI of >4 (antagonism).

Assay [2] has as its system P. aeruginosa PAO1. The assay is described as above. Format: cell-based, Pseudomonas aeruginosa. As to conditions: for FIC of ciprofloxacin: ciprofloxacin in combination with the labelled phenolic constituent; for FICI: labelled phenolic constituent + ciprofloxacin, * = synergistic interaction; for FIC of compound: labelled phenolic constituent in combination with ciprofloxacin. The procedure: as §1, §2

In assay [3] the test system is P. aeruginosa PA14. Nature of the assay: Determination of minimum inhibitory concentration (MIC). Format: cell-based. As to conditions: Pseudomonas aeruginosa, read-out: MIC. The method, then:
(§3) A range of concentration of antibiotics, ciprofloxacin (0.0003-0.25 μg mL^−1) and carbenicillin (0.5-512 μg mL^−1), are chosen due to their known potency against all four bacterial strains. Dilutions are prepared in flat bottom, 96 well microtitre plates (Falcon™, Corning™, Fisher Scientific, ON, Canada). Each well of a microtitre plate is then inoculated with the desired bacterial strain (grown in MHB-II and diluted to […]) and the plate is incubated at 37° C. for 18 h under static conditions. Bacterial growth is assessed by (i) monitoring the optical density of the cell suspension in each well at 600 nm (OD600 nm), and (ii) the resazurin microtitre plate assay. In the resazurin microtitre plate assay, each well of a microtitre plate is supplemented with 20 μM resazurin, incubated in the dark for 20 min at room temperature, followed by fluorescence measurements at ex/em 570/590 nm using a TECAN Infinite M200 Pro microplate reader (Tecan Group Ltd., Switzerland). The lowest concentration of a compound able to prevent increase in OD600 nm and resazurin fluorescence intensity is recorded as the MIC for that compound.

Assay [4] has as its system P. aeruginosa PAO1. Described as above. It counts as cell-based. The following applies: Pseudomonas aeruginosa, read-out: MIC. The procedure:
as §3

Assay [5] has as its system E. coli CFT073. Nature of the assay: Checkerboard microdilution assay (growth inhibition synergy). It counts as cell-based, Escherichia coli. The following applies: for FIC of ciprofloxacin: ciprofloxacin in combination with the labelled phenolic constituent; for FICI: labelled phenolic constituent + ciprofloxacin, * = synergistic interaction; for FIC of compound: labelled phenolic constituent in combination with ciprofloxacin. The procedure: as §1, §2
On the technique in general: In broth dilution the organism is exposed to a series of concentrations in liquid medium.

Assay [6] concerns P. mirabilis HI4320. The description is as above. The following applies: for FIC of ciprofloxacin: ciprofloxacin in combination with the labelled phenolic constituent; for FICI: labelled phenolic constituent + ciprofloxacin, * = synergistic interaction; for FIC of compound: labelled phenolic constituent in combination with ciprofloxacin. Format: cell-based, Proteus mirabilis. The method, then: as §1, §2

Assay [7] relates to E. coli CFT073. In words: Determination of minimum inhibitory concentration (MIC). Format: cell-based. As to conditions: Escherichia coli, CFT073, 18 h; read-out: MIC. The method, then: as §3
In assay [8] the test system is P. mirabilis HI4320. Described as above. Format: cell-based. The following applies: Proteus mirabilis, HI4320, 18 h; read-out: MIC. The procedure: as §3
Setting [9] is: carbenicillin/PRMSE combination, FIC of the labelled component.
[10] abbreviates: labelled constituent + catechol, * = synergistic.
The mark [11] stands for this setting: labelled constituent + gallic acid, * = synergistic.
Where [12] appears, read: labelled constituent combined with catechol.
Setting [13] is: labelled constituent combined with gallic acid.

Broadly, the MIC is the least concentration at which growth counts as inhibited. As to `CC1(C)S[C@@H]2[C@H](NC(=O)C(C(=O)O)c3ccccc3)C(=O)N2[C@H]1C(=O)O` (stereo partly shown) [carbenicillin, reference compound], the FIC with P. aeruginosa PA14 [1] (setting [9]) is 0.063; in the assay on P. aeruginosa PAO1 [2] (setting [9]), 0.13. For the same molecule, the minimum inhibitory concentration (MIC) with P. aeruginosa PA14 [3] (PA14, antibiotic alone, MHB-II, 37° C., 18 h) worked out at 128 µg/mL (≈ 0.338 mM); with P. aeruginosa PAO1 [4] (PAO1, antibiotic alone, MHB-II, 37° C., 18 h), 64 µg/mL (≈ 0.169 mM).

Consider `O=Cc1ccc(O)c(O)c1` [catechaldehyde, 3,4-dihydroxybenzaldehyde], for which the FIC of ciprofloxacin with E. coli CFT073 [5] was found to be 1; in the assay on P. mirabilis HI4320 [6], 0.5; with P. aeruginosa PA14 [1] it was 1; in the assay on P. aeruginosa PAO1 [2], 0.5. In addition, the “FICI, catechol” value in the assay on E. coli CFT073 [5] (setting [10]) is listed as 0.5*; in the assay with P. mirabilis HI4320 [6] (setting [10]), 0.5*; in the assay with P. aeruginosa PA14 [1] (setting [10]) it was 0.5*; in the assay with P. aeruginosa PAO1 [2] (setting [10]), 0.37*. Besides, the “FICI, gallic acid” value with E. coli CFT073 [5] (setting [11]) is recorded as 0.5*; in the assay with P. mirabilis HI4320 [6] (setting [11]) it was 0.37*; in the assay with P. aeruginosa PA14 [1] (setting [11]) it was 0.5*; in the assay on P. aeruginosa PAO1 [2] (setting [11]) it was 0.37*. For the same molecule, the “FIC, catechol” value in the assay on E. coli CFT073 [5] (setting [12]), with P. mirabilis HI4320 [6] (setting [12]), in the assay with P. aeruginosa PA14 [1] (setting [12]) and in the assay with P. aeruginosa PAO1 [2] (setting [12]) was 0.25 each time. Further, the “FIC, gallic acid” value with E. coli CFT073 [5] (setting [13]) came to 0.25; in the assay with P. mirabilis HI4320 [6] (setting [13]), 0.13; in the assay with P. aeruginosa PA14 [1] (setting [13]), 0.25; in the assay with P. aeruginosa PAO1 [2] (setting [13]), 0.13. The FICI with E. coli CFT073 [5] is 2; in the assay with P. mirabilis HI4320 [6], 1.5; with P. aeruginosa PA14 [1], 2; with P. aeruginosa PAO1 [2], 1.01. Also, the FIC of compound in the assay with E. coli CFT073 [5] was 1; in the assay with P. mirabilis HI4320 [6], 1; with P. aeruginosa PA14 [1], 1; in the assay with P. aeruginosa PAO1 [2] it was 0.51. The MIC in the assay on E. coli CFT073 [7] worked out at 1250 µg/mL (≈ 9.05 mM); with P. aeruginosa PA14 [3] (PA14, 18 h) it was 1250 µg/mL (≈ 9.05 mM); in the assay with P. mirabilis HI4320 [8] it was 1250 µg/mL (≈ 9.05 mM); in the assay on P. aeruginosa PAO1 [4] (PAO1, 18 h) it was 1250 µg/mL (≈ 9.05 mM).

For `O=C(O)c1cc(O)c(O)c(O)c1` [gallic acid], the FIC of ciprofloxacin in the assay on E. coli CFT073 [5], in the assay on P. mirabilis HI4320 [6], in the assay with P. aeruginosa PA14 [1] and with P. aeruginosa PAO1 [2] was 1 throughout. The FICI in the assay with E. coli CFT073 [5], in the assay with P. mirabilis HI4320 [6], in the assay on P. aeruginosa PA14 [1] and with P. aeruginosa PAO1 [2] was 2 throughout. In addition, the FIC of compound in the assay with E. coli CFT073 [5], in the assay with P. mirabilis HI4320 [6], in the assay on P. aeruginosa PA14 [1] and in the assay with P. aeruginosa PAO1 [2] was 1 in each case. For the same molecule, the MIC in the assay on E. coli CFT073 [7] is 5000 µg/mL (≈ 29.4 mM); in the assay with P. aeruginosa PA14 [3] (PA14, 18 h), 5000 µg/mL (≈ 29.4 mM); in the assay with P. mirabilis HI4320 [8], 5000 µg/mL (≈ 29.4 mM); with P. aeruginosa PAO1 [4] (PAO1, 18 h), 5000 µg/mL (≈ 29.4 mM).
